Test results taken from patent US20230271950A1, “ANTIBACTERIAL PICOLINAMIDE COMPOUNDS” (University of Notre Dame Du Lac, priority 2020, published 2023).
Converted amounts (≈) assume the structure as drawn.

Assays:
MRSA (NRS70, NRS119) = assay: MIC against MRSA strains; type: cell-based, Staphylococcus aureus; details: Staphylococcus aureus, NRS70 strain; Table 3 (SAR^2 and SAR^3); read-out: MIC MRSA
C. difficile = assay: MIC by broth microdilution against C. difficile strains; type: cell-based, Clostridioides difficile; details: for MIC: Clostridioides difficile, ATCC43255, ATCC 43255, ribotype 087, Table 3 (SAR^2 and SAR^3), read-out: MIC C. difficile; for Selectivity: MIC MRSA/MIC C. difficile, Table 3

Q: How did the MIC (MRSA (NRS70, NRS119)) turn out when `O=C(Nc1ncco1)c1ccnc(-c2cccc(OCc3ccccc3)c2)c1` [Compound 57, 2-(3-(Benzyloxy)phenyl)-N-(oxazol-2-yl)isonicotinamide] was run?
A: 1 µg/mL (≈ 2.69 µM)

Q: And the MIC (C. difficile)?
A: 0.5 µg/mL (≈ 1.35 µM)

Q: And the Selectivity (C. difficile)?
A: 2

Q: `CC(C)(C)OC(=O)Nc1ccc(-c2cc(C(=O)Nc3ncco3)ccn2)cc1` [Compound 58, Tert-butyl (4-(4-(oxazol-2-ylcarbamoyl)pyridin-2-yl)phenyl)carbamate] was tested. Which MIC (MRSA (NRS70, NRS119)) did it give?
A: 8 µg/mL (≈ 21 µM)

Q: What about the MIC (C. difficile) of the same molecule?
A: 8 µg/mL (≈ 21 µM)

Q: What about the Selectivity (C. difficile) of the same molecule?
A: 1

Q: What does the source list for `CC(C)(C)OC(=O)Nc1cccc(-c2cc(C(=O)Nc3ncco3)ccn2)c1` [Compound 59, Tert-butyl (3-(4-(oxazol-2-ylcarbamoyl)pyridin-2-yl)phenyl)carbamate]?
A: MIC (MRSA (NRS70, NRS119)): 4 µg/mL (≈ 10.5 µM); MIC (C. difficile): 8 µg/mL (≈ 21 µM); Selectivity (C. difficile): 0.5

Q: Which MIC (MRSA (NRS70, NRS119)) does the source give for `O=C(Nc1ncco1)c1ccnc(-c2ccccc2)c1` [Compound 60, N-(Oxazol-2-yl)-2-phenylisonicotinamide] here?
A: 8 µg/mL (≈ 30.2 µM)

Q: What about the MIC (C. difficile) of the same molecule?
A: 8 µg/mL (≈ 30.2 µM)

Q: What about the Selectivity (C. difficile) of the same molecule?
A: 1

Q: For `O=C(Nc1ncco1)c1ccnc(-c2cnc3ccccc3c2)c1` [Compound 61, N-(Oxazol-2-yl)-2-(quinolin-3-yl)isonicotinamide], which MIC (MRSA (NRS70, NRS119)) is on record?
A: 16 µg/mL (≈ 50.6 µM)

Q: And the MIC (C. difficile)?
A: 4 µg/mL (≈ 12.6 µM)

Q: And the Selectivity (C. difficile)?
A: 4

Q: With `O=C(Nc1ncco1)c1ccnc(N2CCOCC2)c1` [Compound 62, 2-Morpholino-N-(oxazol-2-yl)isonicotinamide] as the molecule, how does the MIC (MRSA (NRS70, NRS119)) read?
A: 128 µg/mL (≈ 467 µM)

Q: What about the MIC (C. difficile) of the same molecule?
A: 128 µg/mL (≈ 467 µM)

Q: And the Selectivity (C. difficile)?
A: 1

Q: Which MIC (MRSA (NRS70, NRS119)) does the source give for `O=C(Nc1ncco1)c1ccnc(C(F)(F)F)c1` [Compound 63, N-(Oxazol-2-yl)-2-(trifluoromethyl)isonicotinamide] here?
A: 16 µg/mL (≈ 62.2 µM)

Q: And the MIC (C. difficile)?
A: 4 µg/mL (≈ 15.6 µM)

Q: And the Selectivity (C. difficile)?
A: 4

Q: What does the source list for `O=C(Nc1ncco1)c1ccnc(OCCC(F)(F)F)c1` [Compound 65, N-(Oxazol-2-yl)-2-(3,3,3-trifluoropropoxy)isonicotinamide]?
A: MIC (MRSA (NRS70, NRS119)): 8 µg/mL (≈ 26.6 µM); MIC (C. difficile): 4 µg/mL (≈ 13.3 µM); Selectivity (C. difficile): 2

Q: What does the source list for `O=C(Nc1ncco1)c1ccnc(-c2ccc(F)c(Cl)c2)c1F` [Compound 67, 2-(3-Chloro-4-fluorophenyl)-3-fluoro-N-(oxazol-2-yl)isonicotinamide]?
A: MIC (MRSA (NRS70, NRS119)): 1 µg/mL (≈ 2.98 µM); MIC (C. difficile): 1 µg/mL (≈ 2.98 µM); Selectivity (C. difficile): 1

Q: With `O=C(Nc1ncco1)c1ccnc(-c2ccc(F)c(F)c2)c1F` [Compound 68, 2-(3,4-Difluorophenyl)-3-fluoro-N-(oxazol-2-yl)isonicotinamide] as the molecule, how does the MIC (MRSA (NRS70, NRS119)) read?
A: 4 µg/mL (≈ 12.5 µM)

Q: And the MIC (C. difficile)?
A: 2 µg/mL (≈ 6.26 µM)

Q: And the Selectivity (C. difficile)?
A: 2

Q: What does the source list for `O=C(Nc1ncco1)c1ccnc(-c2cccc(Cl)c2)c1F` [Compound 69, 2-(3-Chlorophenyl)-3-fluoro-N-(oxazol-2-yl)isonicotinamide]?
A: MIC (MRSA (NRS70, NRS119)): 2 µg/mL (≈ 6.3 µM); MIC (C. difficile): 1 µg/mL (≈ 3.15 µM); Selectivity (C. difficile): 2

Q: For `O=C(Nc1ncco1)c1cc(-c2ccc(F)c(F)c2)ncc1F` [Compound 72, 2-(3,4-Difluorophenyl)-5-fluoro-N-(oxazol-2-yl)isonicotinamide], which MIC (MRSA (NRS70, NRS119)) is on record?
A: 4 µg/mL (≈ 12.5 µM)

Q: And the MIC (C. difficile)?
A: 0.5 µg/mL (≈ 1.57 µM)

Q: And the Selectivity (C. difficile)?
A: 8

Q: `O=C(Nc1ncco1)c1cc(-c2ccc(F)c(Cl)c2)ncc1F` [Compound 73, 2-(3-Chloro-4-fluorophenyl)-5-fluoro-N-(oxazol-2-yl)isonicotinamide] was tested. Which MIC (MRSA (NRS70, NRS119)) did it give?
A: 2 µg/mL (≈ 5.96 µM)

Q: And the MIC (C. difficile)?
A: 0.5 µg/mL (≈ 1.49 µM)

Q: And the Selectivity (C. difficile)?
A: 4

Q: `O=C(Nc1ncco1)c1cc(-c2ccc(Cl)c(F)c2)ncc1F` [Compound 74, 2-(4-Chloro-3-fluorophenyl)-5-fluoro-N-(oxazol-2-yl)isonicotinamide] was tested. Which MIC (MRSA (NRS70, NRS119)) did it give?
A: 2 µg/mL (≈ 5.96 µM)

Q: What about the MIC (C. difficile) of the same molecule?
A: 0.25 µg/mL (≈ 0.745 µM)

Q: What about the Selectivity (C. difficile) of the same molecule?
A: 8

Q: Which MIC (MRSA (NRS70, NRS119)) does the source give for `O=C(Nc1ncco1)c1cccc(-c2ccc(Cl)c(Cl)c2)n1` [Compound 75, 6-(3,4-Dichlorophenyl)-N-(oxazol-2-yl)picolinamide] here?
A: 2 µg/mL (≈ 5.99 µM)

Q: And the MIC (C. difficile)?
A: ≥ 16 µg/mL

Q: What about the Selectivity (C. difficile) of the same molecule?
A: ≤ 0.125

Q: `O=C(Nc1ncco1)c1cccc(-c2cccc(Cl)c2)n1` [Compound 76, 6-(3-Chlorophenyl)-N-(oxazol-2-yl)picolinamide] was tested. Which MIC (MRSA (NRS70, NRS119)) did it give?
A: 4 µg/mL (≈ 13.3 µM)

Q: What about the MIC (C. difficile) of the same molecule?
A: 8 µg/mL (≈ 26.7 µM)

Q: And the Selectivity (C. difficile)?
A: 0.5

Q: What does the source list for `O=C(Nc1ncco1)c1cccc(-c2ccc(F)c(Cl)c2)n1` [Compound 77, 6-(3-Chloro-4-fluorophenyl)-N-(oxazol-2-yl)picolinamide]?
A: MIC (MRSA (NRS70, NRS119)): 8 µg/mL (≈ 25.2 µM); MIC (C. difficile): 8 µg/mL (≈ 25.2 µM); Selectivity (C. difficile): 1

Q: With `O=C(Nc1ncco1)c1cccc(-c2ccc(Cl)c(F)c2)n1` [Compound 78, 6-(4-Chloro-3-fluorophenyl)-N-(oxazol-2-yl)picolinamide] as the molecule, how does the MIC (MRSA (NRS70, NRS119)) read?
A: 128 µg/mL (≈ 403 µM)

Q: And the MIC (C. difficile)?
A: ≥ 16 µg/mL

Q: What about the Selectivity (C. difficile) of the same molecule?
A: ≤ 8

Q: For `O=C(Nc1ncco1)c1cccc(-c2ccc(F)cc2)n1` [Compound 79, 6-(4-Fluorophenyl)-N-(oxazol-2-yl)picolinamide], which MIC (MRSA (NRS70, NRS119)) is on record?
A: 32 µg/mL (≈ 113 µM)

Q: What about the MIC (C. difficile) of the same molecule?
A: ≥ 16 µg/mL

Q: And the Selectivity (C. difficile)?
A: ≤ 2

Q: Which MIC (MRSA (NRS70, NRS119)) does the source give for `O=C(Nc1ncco1)c1cccc(-c2ccc(F)c(F)c2)n1` [Compound 80, 6-(3,4-Difluorophenyl)-N-(oxazol-2-yl)picolinamide] here?
A: 64 µg/mL (≈ 212 µM)

Q: What about the MIC (C. difficile) of the same molecule?
A: ≥ 16 µg/mL

Q: What about the Selectivity (C. difficile) of the same molecule?
A: ≤ 4

Q: Which results are given for `O=C(Nc1ncco1)c1cncc(-c2ccc(F)c(Cl)c2)c1` [Compound 81, 5-(3-Chloro-4-fluorophenyl)-N-(oxazol-2-yl)nicotinamide]?
A: MIC (MRSA (NRS70, NRS119)): 8 µg/mL (≈ 25.2 µM); MIC (C. difficile): 2 µg/mL (≈ 6.3 µM); Selectivity (C. difficile): 4

Q: For `O=C(Nc1ncco1)c1cncc(-c2ccc(F)c(F)c2)c1` [Compound 82, 5-(3,4-Difluorophenyl)-N-(oxazol-2-yl)nicotinamide], which MIC (MRSA (NRS70, NRS119)) is on record?
A: 8 µg/mL (≈ 26.6 µM)

Q: And the MIC (C. difficile)?
A: 4 µg/mL (≈ 13.3 µM)

Q: And the Selectivity (C. difficile)?
A: 2

Q: What does the source list for `O=C(Nc1ncco1)c1ccnc(-c2ccc(Cl)c(Cl)c2)n1` [Compound 83, 2-(3,4-Dichlorophenyl)-N-(oxazol-2-yl)pyrimidine-4-carboxamide]?
A: MIC (MRSA (NRS70, NRS119)): 0.5 µg/mL (≈ 1.49 µM); MIC (C. difficile): 1 µg/mL (≈ 2.98 µM); Selectivity (C. difficile): 0.5

Q: How did the MIC (MRSA (NRS70, NRS119)) turn out when `O=C(Nc1ncco1)c1ccnc(-c2cccc(Cl)c2)n1` [Compound 84, 2-(3-Chlorophenyl)-N-(oxazol-2-yl)pyrimidine-4-carboxamide] was run?
A: 4 µg/mL (≈ 13.3 µM)

Q: What about the MIC (C. difficile) of the same molecule?
A: 4 µg/mL (≈ 13.3 µM)

Q: And the Selectivity (C. difficile)?
A: 1

Q: For `O=C(Nc1ncco1)c1ccnc(-c2cccc(C(F)(F)F)c2)n1` [Compound 85, N-(Oxazol-2-yl)-2-(3-(trifluoromethyl)phenyl)pyrimidine-4-carboxamide], which MIC (MRSA (NRS70, NRS119)) is on record?
A: 2 µg/mL (≈ 5.98 µM)

Q: What about the MIC (C. difficile) of the same molecule?
A: 2 µg/mL (≈ 5.98 µM)

Q: And the Selectivity (C. difficile)?
A: 1

Q: `O=C(Nc1ncco1)c1cncc(-c2ccc(Cl)c(Cl)c2)n1` [Compound 86, 6-(3,4-Dichlorophenyl)-N-(oxazol-2-yl)pyrazine-2-carboxamide] was tested. Which MIC (MRSA (NRS70, NRS119)) did it give?
A: 4 µg/mL (≈ 11.9 µM)

Q: And the MIC (C. difficile)?
A: 8 µg/mL (≈ 23.9 µM)

Q: What about the Selectivity (C. difficile) of the same molecule?
A: 0.5

Q: Which results are given for `O=C(Nc1ncco1)c1cc(-c2ccc(Cl)cc2)ccn1` [Compound 88, 4-(4-Chlorophenyl)-N-(oxazol-2-yl)picolinamide]?
A: MIC (MRSA (NRS70, NRS119)): 128 µg/mL (≈ 427 µM); MIC (C. difficile): 4 µg/mL (≈ 13.3 µM); Selectivity (C. difficile): 32

Q: How did the MIC (MRSA (NRS70, NRS119)) turn out when `O=C(Nc1ncco1)c1cc(-c2ccc(OC(F)(F)F)cc2)ccn1` [Compound 95, N-(Oxazol-2-yl)-4-(4-(trifluoromethoxy)phenyl)picolinamide] was run?
A: 128 µg/mL (≈ 366 µM)

Q: And the MIC (C. difficile)?
A: 0.25 µg/mL (≈ 0.716 µM)

Q: What about the Selectivity (C. difficile) of the same molecule?
A: 512

Q: What does the source list for `O=C(Nc1ncco1)c1cc(-c2cccc(OC(F)(F)F)c2)ccn1` [Compound 96, N-(Oxazol-2-yl)-4-(3-(trifluoromethoxy)phenyl)picolinamide]?
A: MIC (MRSA (NRS70, NRS119)): ≥ 256 µg/mL; MIC (C. difficile): 0.5 µg/mL (≈ 1.43 µM); Selectivity (C. difficile): ≥512
